Assay results from patent US7427625B2, “Substituted thiatriazaacenaphthylene-6-carbonitrile kinase inhibitors” (Janssen Pharmaceutica, N.V., priority 2006, dated 2008).

Experiments:
[1] = biological target: T1, EGFR (Homo sapiens, UniProt P00533); assay: EGFR Kinase Assay; format: biochemical; conditions: for inhibition at 2 µM: test concentration of 2 μM, read-out: EGFR percent inhibition
T1 construct: The intracellular portion of EGFR started at nucleotide 2189 (corresponding to amino acid 667) and ended at the termination codon; made in house; host or cells: Sf9 insect cells (baculovirus)
Source text: The EGFR kinase used was a fusion of Glutathione-S-Transferase (GST) and a PCR amplified intracellular portion of EGFR (NM_005228). The intracellular portion of EGFR started at nucleotide 2189 (corresponding to amino acid 667) and ended at the termination codon. The portion was PCR amplified with primers that added the lambda attB sequences to each end, recombined into an entry vector, then into a GST destination vector (as described in Gateway Technologies Manual by Invitrogen Corporation, Carlsbad, Calif.).
The destination vector was recombined in the DH10BAC strain of bacteria to produce a bacmid. The bacmid was transfected into Sf 9 cells and the supernatant containing the baculovirus was collected. The GSTEGFR protein was purified using large cultures of Sf 9 cells infected with stock virus. After an appropriate period of time, the cells were collected and lysed. The GSTEGFR was then purified from the lysate on Glutathione-Sepharose columns (as described by Amersham Biosciences, Buckinghamshire, United Kingdom).
The EGFR substrate was prepared by biotinylating polyGluTyr (128 mg) (Sigma, St. Louis, Mo.) in a 1×PBS buffer incubated together with a 12-fold molar excess of Sulfo-NHS-LC-Biotin on ice for at least 2 hrs. The free biotin was separated from the biotinylated polyGluTyr on a gel filtration column.
A mixture of a 10× kinase buffer (500 mM Tris at pH 8.0, 100 mM Magnesium Chloride and 1 mM Sodium Vanadate), DTT (1 mM final from 500 mM stock), ATP (5 μM final from 10 mM stock), biotinylated polyGluTyr (10 μg/μL stock), γ-^33P ATP (10 μCi/μL stock) and water was added to each well (90 μL/well) of a Streptavidin Flashplate (Perkin Elmer, Wellesley, Mass.).
Test compound in 100% DMSO (2 μL) was added to the appropriate wells. Diluted GSTEGFR (1:300 dilution in 50 mM Tris at pH 8.0 and 0.1% bovine serum albumin) (10 μL) was added to the wells to initiate the reactions.
The plates were incubated at 30° C. for 1 hr with shaking. The reacted contents were removed and the plates were sequentially washed three times with a 1×PBS stop buffer (300 μL without Magnesium and Calcium) and 100 mM EDTA. After the final wash, the same stop buffer (200 μL) was added to the wells. The plates were then sealed and read on the TopCount scintillation counter.
Test compounds were assayed in triplicate at 16 concentrations at half-log dilutions starting at 200 uM. A maximum and minimum signal for the assay was determined on each plate. The percent inhibition of a test compound was calculated according to the formula
For a series of test concentrations, the IC50 was derived by graphing percent inhibition against the log of the concentrations tested for a given compound. For those compounds without an IC50, the percent inhibition results are shown at a test concentration of 2 μM.

[2] = biological target: T2, VEGF-R2 (Rattus norvegicus, UniProt O08775); assay: VEGF-R2 Screening Assay; format: biochemical; conditions: for inhibition at 1 µM: test concentration of 1 μM, read-out: VEGF-R2 percent inhibition
T2 construct: polyhistidine (N)
Procedure: (§1) A kinase reaction mixture was prepared containing 50 mM Tris-HCl at pH 8, 10 mM, MgCl20.1 mM […], 1 mM DTT, 10 μM ATP, 0.025 μM biotinylated histone-H1 peptide substrate and 0.2 μCuries per well ^33P-γ-ATP (2000-3000 Ci/mmol). 70 μL of the kinase reaction mixture was dispensed into the well of a Streptavidin FlashPlate.
(§2) Test compound stock in 100% DMSO (1 μL) was added to the wells resulting in a final concentration of 1% DMSO in the reaction with a 100 μL final reaction volume. Each enzyme was diluted in 50 mM Tris-HCl pH=8.0, 0.1% BSA and 30 μL was added to each well to initiate the reaction. The reaction was incubated for one hour at 30° C. At the end of the 1 hr incubation, the reaction was terminated by aspirating the mixture from the plate and washing the wells twice with PBS containing 100 mM EDTA. The biotinylated peptide substrate became immobilized on the Flashplate^198 and the incorporation of ^33P-γ-ATP was measured by reading the plate on a scintillation counter. Inhibition of the enzymatic activity was measured by observing a reduced amount of ^33P-γ-ATP incorporated into the immobilized peptide.
The VEGF-R2 enzyme is a fusion protein containing a polyhistidine tag at the N terminus followed by amino acids 786 to 1343 of the rat VEGF-R2 kinase domain (Accession number U93306). The assay used 150 ng of the N-terminal biotinylated peptide biotin-KHKKLAEGSAYEEV-amide (VEGF-R2) per well.
(§3) The IC50 was derived according to the procedure described in Example 2. For those compounds without an IC50, the percent inhibition results are shown at a test concentration of 1 μM.

[3] = biological target: T3, Aurora-A (Mus musculus, UniProt P97477); assay: Aurora-A Screening Assay; format: biochemical, murine; conditions: for inhibition at 1 µM: test concentration of 1 μM, read-out: Aurora-A percent inhibition
T3 construct: followed by the full length protein encoding the murine Aurora-A; polyhistidine (N); made in house; host or cells: sf9 insect cells
T3 sequence (P97477 1-395): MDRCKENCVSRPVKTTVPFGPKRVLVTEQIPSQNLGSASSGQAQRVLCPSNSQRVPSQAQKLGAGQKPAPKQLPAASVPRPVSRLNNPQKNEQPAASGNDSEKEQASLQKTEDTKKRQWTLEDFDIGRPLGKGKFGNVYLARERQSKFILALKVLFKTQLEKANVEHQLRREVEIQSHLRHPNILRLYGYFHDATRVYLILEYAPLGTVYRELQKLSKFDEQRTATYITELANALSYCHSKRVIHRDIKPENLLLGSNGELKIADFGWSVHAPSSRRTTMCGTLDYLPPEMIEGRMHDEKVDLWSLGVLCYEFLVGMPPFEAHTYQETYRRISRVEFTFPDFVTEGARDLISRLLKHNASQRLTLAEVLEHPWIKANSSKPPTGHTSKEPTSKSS
Procedure: as §1, §2
Aurora-A is a fusion protein containing a polyhistidine tag at the N terminus followed by the full length protein encoding the murine Aurora-A (Accession number GB BC014711) expressed and purified from sf9 insect cells. The assay used 400 ng of the N-terminal biotinylated peptide biotin-GRTGRRNSI-amide (Aurora-A) per well.
as §3

[4] = biological target: T4, HER-2 (Homo sapiens, UniProt P04626); assay: HER-2 Kinase Assay; format: biochemical; conditions: for inhibition at 1 µM: test concentration of 1 μM, read-out: HER-2 percent inhibition
T4 construct: the nucleotides encoding amino acids 679 to 1255 of HER-2; purchased Proqinase (Freiburg, Germany)
Procedure: HER-2 kinase was purified at Proqinase (Freiburg, Germany) from a construct that consisted of a fusion of GST (Glutathione-S-Transferase), HIS6-Thrombin and the nucleotides encoding amino acids 679 to 1255 of HER-2.
A mixture of a 10× kinase reaction buffer (600 mM Hepes at pH 7.5, 30 mM Magnesium Chloride, 0.03 mM Sodium Vanadate and 500 μg/mL PEG 20,000), DTT (1.2 mM final from a 10 mM stock), ATP (1 μM from a 10 mM stock), biotinylated polyGluTyr (1.5 ng/μL final from stock of 1 μg/μL prepared by Upstate Biotechnologies, Lake Placid, N.Y.), Manganese Chloride (3 mM final from a 1 M stock), γ-^33P-ATP (10 μCi/μL stock) and water (70 μL/well) was added to each well of a Streptavidin Flashplate (Cat. #SMP103, NEN, Boston, Mass.).
Test compound stock (1 μL) was added to the appropriate wells. Diluted GSTHER2 kinase (6.7 ng/μL diluted into 50 mM Tris-HCl at pH 8.0 and 0.1% bovine serum albumin) (30 μL) was added (total volume of 200 ng/well) to initiate the reactions.
The reaction plates were incubated at 30° C. for 1 hr. The reaction was terminated by aspiring the reaction mixture from the plate wells and washing the wells three times with a 1×PBS stop buffer (300 μL) and 100 mM EDTA. After the final wash, the same stop buffer (200 μL) was again added to the wells. The plates were then sealed and read on the TopCount scintillation counter.
as §3

T2 sequence (O08775 786-1343): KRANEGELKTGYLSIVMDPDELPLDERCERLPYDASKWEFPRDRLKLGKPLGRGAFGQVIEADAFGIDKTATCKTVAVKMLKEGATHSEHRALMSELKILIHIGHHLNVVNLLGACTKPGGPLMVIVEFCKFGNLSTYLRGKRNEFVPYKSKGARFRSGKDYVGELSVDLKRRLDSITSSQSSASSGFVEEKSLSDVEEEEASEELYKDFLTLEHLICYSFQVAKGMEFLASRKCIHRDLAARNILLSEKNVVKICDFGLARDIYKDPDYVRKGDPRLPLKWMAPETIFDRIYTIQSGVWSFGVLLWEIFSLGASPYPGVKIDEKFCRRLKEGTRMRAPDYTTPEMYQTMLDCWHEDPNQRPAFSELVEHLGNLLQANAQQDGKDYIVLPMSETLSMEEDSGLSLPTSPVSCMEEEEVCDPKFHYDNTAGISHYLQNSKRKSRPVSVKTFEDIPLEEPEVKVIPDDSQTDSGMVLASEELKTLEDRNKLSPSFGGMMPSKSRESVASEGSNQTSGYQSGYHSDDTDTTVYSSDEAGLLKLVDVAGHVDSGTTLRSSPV
T4 sequence (P04626 679-1255): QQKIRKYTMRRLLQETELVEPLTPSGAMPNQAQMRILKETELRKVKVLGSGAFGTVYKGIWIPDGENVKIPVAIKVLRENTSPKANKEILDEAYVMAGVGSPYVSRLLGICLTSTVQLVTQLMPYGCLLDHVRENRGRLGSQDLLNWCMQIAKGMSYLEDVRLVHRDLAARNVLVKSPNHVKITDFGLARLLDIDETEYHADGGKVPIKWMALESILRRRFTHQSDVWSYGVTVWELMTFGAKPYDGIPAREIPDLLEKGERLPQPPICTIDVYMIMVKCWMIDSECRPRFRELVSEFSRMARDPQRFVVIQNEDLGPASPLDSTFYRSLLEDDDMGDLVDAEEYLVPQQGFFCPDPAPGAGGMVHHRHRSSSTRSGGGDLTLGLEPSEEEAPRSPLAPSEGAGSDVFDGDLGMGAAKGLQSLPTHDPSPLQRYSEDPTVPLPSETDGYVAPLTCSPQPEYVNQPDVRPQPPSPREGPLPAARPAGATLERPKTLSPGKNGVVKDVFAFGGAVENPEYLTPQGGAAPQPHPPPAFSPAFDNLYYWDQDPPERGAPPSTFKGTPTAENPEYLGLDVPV
T1 sequence (P00533 669-1210 limits assumed): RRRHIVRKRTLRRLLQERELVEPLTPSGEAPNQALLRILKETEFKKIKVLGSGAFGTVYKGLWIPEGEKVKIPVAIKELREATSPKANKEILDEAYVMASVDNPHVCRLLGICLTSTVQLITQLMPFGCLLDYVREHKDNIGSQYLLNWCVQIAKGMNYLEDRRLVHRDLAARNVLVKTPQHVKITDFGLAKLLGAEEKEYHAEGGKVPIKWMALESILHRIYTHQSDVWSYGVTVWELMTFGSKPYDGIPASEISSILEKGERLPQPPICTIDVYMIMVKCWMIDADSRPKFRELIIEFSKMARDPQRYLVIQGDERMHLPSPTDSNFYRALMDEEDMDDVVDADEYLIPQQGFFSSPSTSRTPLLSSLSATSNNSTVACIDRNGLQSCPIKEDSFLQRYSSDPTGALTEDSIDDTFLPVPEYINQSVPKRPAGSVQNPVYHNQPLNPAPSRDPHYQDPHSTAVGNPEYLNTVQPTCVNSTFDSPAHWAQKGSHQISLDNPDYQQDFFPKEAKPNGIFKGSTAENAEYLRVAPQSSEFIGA

Compound	inhibition at 2 µM [1] [%]	IC50 [2] [µM]	IC50 [3] [µM]	IC50 [4] [µM]	inhibition at 1 µM [3] [%]	inhibition at 1 µM [4] [%]	inhibition at 1 µM [2] [%]	IC50 [1] [µM]
N#Cc1cnc2sc(C(=O)N3CCC(O)CC3)c3c2c1N(c1c(Cl)ccc2c1OCO2)C(=O)N3 [Cpd 28, 5-(5-chloro-benzo[1,3]dioxol-4-yl)-2-(4-hydroxy-piperidine-1-carbonyl)-4-oxo-4,5-dihydro-3H-1-thia-3,5,8-triaza-acenaphthylene-6-carbonitrile]	9				25	35	15	
CC(C)(CO)NC(=O)c1sc2ncc(C#N)c3c2c1NC(=O)N3c1c(Cl)ccc2c1OCO2 [Cpd 38, 5-(5-chloro-benzo[1,3]dioxol-4-yl)-6-cyano-4-oxo-4,5-dihydro-3H-1-thia-3,5,8-triaza-acenaphthylene-2-carboxylic acid (2-hydroxy-1,1-dimethyl-ethyl)-amide]	13				4	0	2	
CCOC(=O)c1sc2nc(Cl)c(C#N)c3c2c1NC(=O)N3c1ccc(Oc2ccccc2)cc1 [Cpd 53, 7-chloro-6-cyano-4-oxo-5-(4-phenoxy-phenyl)-4,5-dihydro-3H-1-thia-3,5,8-triaza-acenaphthylene-2-carboxylic acid ethyl ester]	2	> 100	> 100	> 100				
N#Cc1cnc2sc(C(=O)Nc3ccc(CN4CCC(CO)CC4)cc3)c3c2c1N(c1c(Cl)ccc2c1OCO2)C(=O)N3 [Cpd 22, 5-(5-chloro-benzo[1,3]dioxol-4-yl)-6-cyano-4-oxo-4,5-dihydro-3H-1-thia-3,5,8-triaza-acenaphthylene-2-carboxylic acid [4-(4-hydroxymethyl-piperidin-1-ylmethyl)-phenyl]-amide]		> 100			15	48		0.567

Further lines, results first:

inhibition at 2 µM [1] [%]	IC50 [2] [µM]	IC50 [3] [µM]	IC50 [4] [µM]	inhibition at 1 µM [3] [%]	inhibition at 1 µM [4] [%]	inhibition at 1 µM [2] [%]	IC50 [1] [µM]	Compound
48	> 100	> 100	> 10					COC1CCN(Cc2ccc(NC(=O)c3sc4ncc(C#N)c5c4c3NC(=O)N5c3ccc(Oc4ccccc4)cc3)cc2)CC1 [Cpd 51, 6-cyano-4-oxo-5-(4-phenoxy-phenyl)-4,5-dihydro-3H-1-thia-3,5,8-triaza-acenaphthylene-2-carboxylic acid [4-(4-methoxy-piperidin-1-ylmethyl)-phenyl]-amide]
32	> 100			3	13			N#Cc1cnc2sc(C(=O)N3CCCC(CO)C3)c3c2c1N(c1c(Cl)ccc2c1OCO2)C(=O)N3 (centres unmarked) [Cpd 21, 5-(5-chloro-benzo[1,3]dioxol-4-yl)-2-(3-hydroxymethyl-piperidine-1-carbonyl)-4-oxo-4,5-dihydro-3H-1-thia-3,5,8-triaza-acenaphthylene-6-carbonitrile]
11	12.3	15.3	3.37					N#Cc1cnc2sc(C(=O)Nc3ccc(CN4CCC(F)(F)CC4)cc3)c3c2c1N(c1c(Cl)ccc2c1OCO2)C(=O)N3 [Cpd 54, 5-(5-chloro-benzo[1,3]dioxol-4-yl)-6-cyano-4-oxo-4,5-dihydro-3H-1-thia-3,5,8-triaza-acenaphthylene-2-carboxylic acid [4-(4,4-difluoro-piperidin-1-ylmethyl)-phenyl]-amide]
	> 10	> 100	2.2				0.124	N#Cc1cnc2sc(C(=O)Nc3ccc(CN4CCOCC4)cc3)c3c2c1N(c1ccc(Oc2ccccc2)cc1)C(=O)N3 [Cpd 50, 6-cyano-4-oxo-5-(4-phenoxy-phenyl)-4,5-dihydro-3H-1-thia-3,5,8-triaza-acenaphthylene-2-carboxylic acid (4-morpholin-4-ylmethyl-phenyl)-amide]
	> 10	1.1	1.1					N#Cc1cnc2sc(C(=O)Nc3ccc(CN4CCCC(F)C4)cc3)c3c2c1N(c1c(Cl)ccc2c1OCO2)C(=O)N3 (centres unmarked) [Cpd 44, 5-(5-chloro-benzo[1,3]dioxol-4-yl)-6-cyano-4-oxo-4,5-dihydro-3H-1-thia-3,5,8-triaza-acenaphthylene-2-carboxylic acid [4-(3-fluoro-piperidin-1-ylmethyl)-phenyl]-amide]
	~100	> 10	10.6					N#Cc1cnc2sc(C(=O)N3CCCC(F)C3)c3c2c1N(c1c(Cl)ccc2c1OCO2)C(=O)N3 (centres unmarked) [Cpd 43, 5-(5-chloro-benzo[1,3]dioxol-4-yl)-2-(3-fluoro-piperidine-1-carbonyl)-4-oxo-4,5-dihydro-3H-1-thia-3,5,8-triaza-acenaphthylene-6-carbonitrile]
